Source: BindingDB's records for doi:10.1021/jm00162a015 (1987)
Square brackets hold non-standard residues; d marks the D form. Peptide text beside a SMILES is read from it. * marks the point of attachment. Sta = CC(C)C[C@H](N)[C@@H](O)CC(=O)O; Boc = CC(C)(C)OC(=O)*

What follows are compounds tested against Rhizopuspepsin (Rhizopus chinensis) (assay: Compound was tested for inhibition of Rhizopus chinensis pepsin.).

Row | SMILES | Ki
1 | COC(=O)[C@H](CC(C)C)NC(=O)[C@@H](NC(=O)[C@H](Cc1ccccc1)NC(=O)C[C@H](O)[C@H](CC(C)C)NC(=O)[C@H](C)NC(=O)[C@H](CC(C)C)NC(=O)[C@H](Cc1ccccc1)NC(=O)OC(C)(C)C)C(C)C [2-{2-[2-(4-{2-[2-(2-tert-Butoxycarbonylamino-3-phenyl-propionylamino)-4-methyl-pentanoylamino]-propionylamino}-3-hydroxy-6-methyl-heptanoylamino)-3-phenyl-propionylamino]-3-methyl-butyrylamino}-4-methyl-pentanoic acid methyl ester] (Boc-FLA[Sta]FVL-OMe) | 9.2 nM
2 | COC(=O)[C@H](CC(C)C)NC(=O)[C@@H](NC(=O)[C@H](Cc1ccccc1)NC(=O)C[C@H](O)[C@H](CC(C)C)NC(=O)[C@H](C)NC(=O)[C@H](C)NC(=O)[C@H](Cc1ccccc1)NC(=O)OC(C)(C)C)C(C)C [2-{2-[2-(4-{2-[2-(2-tert-Butoxycarbonylamino-3-phenyl-propionylamino)-propionylamino]-propionylamino}-3-hydroxy-6-methyl-heptanoylamino)-3-phenyl-propionylamino]-3-methyl-butyrylamino}-4-methyl-pentanoic acid methyl ester] (Boc-FAA[Sta]FVL-OMe) | 51 nM
3 | COC(=O)[C@H](CC(C)C)NC(=O)[C@@H](NC(=O)C[C@H](O)[C@H](CC(C)C)NC(=O)[C@H](C)NC(=O)[C@H](C)NC(=O)[C@H](Cc1ccccc1)NC(=O)OC(C)(C)C)C(C)C [2-[2-(4-{2-[2-(2-tert-Butoxycarbonylamino-3-phenyl-propionylamino)-propionylamino]-propionylamino}-3-hydroxy-6-methyl-heptanoylamino)-3-methyl-butyrylamino]-4-methyl-pentanoic acid methyl ester] (Boc-FAA[Sta]VL-OMe) | 78 nM
4 | COC(=O)[C@H](CC(C)C)NC(=O)[C@@H](NC(=O)[C@H](Cc1ccccc1)NC(=O)C[C@H](O)[C@H](CC(C)C)NC(=O)[C@H](C)NC(=O)[C@H](Cc1ccccc1)NC(=O)[C@H](Cc1ccccc1)NC(=O)OC(C)(C)C)C(C)C [2-{2-[2-(4-{2-[2-(2-tert-Butoxycarbonylamino-3-phenyl-propionylamino)-3-phenyl-propionylamino]-propionylamino}-3-hydroxy-6-methyl-heptanoylamino)-3-phenyl-propionylamino]-3-methyl-butyrylamino}-4-methyl-pentanoic acid methyl ester] (Boc-FFA[Sta]FVL-OMe) | 14 nM
